# Source: a melting point compilation (Tetko et al.; mined from patent text by program, amines drawn as free bases though some values may be those of a salt)
row,Compound,melting point [°C]
1,CC(C)CCCc1c(-c2ccc(S(C)(=O)=O)cc2)cnn(-c2ccc(F)c(F)c2)c1=O,111 to 113
2,C[C@](O)(CBr)C(=O)Nc1ccc([N+](=O)[O-])c(C(F)(F)F)c1,70 to 74
3,CN1C(=O)CC[C@]2(C)c3ccc(C=Cc4ccccc4)cc3CC[C@@H]12,173 to 175
4,CCCSc1ccc(NS(=O)(=O)c2cccs2)c2[nH]c(C(=O)OCC)cc12,150 to 151
5,CCC1NC(=O)N(C)C(=O)N1,202 to 203
6,Cc1cc(F)c(N)cc1-n1cc(C(=O)O)c(=O)c2cc(F)c(N3CC(O)C3)c(C)c21,147 to 151
7,CCOCCCCCCCCCCC(=O)O,44 to 45.5
8,O=C(Nc1ccc2nc(CN3CCCCC3)ccc2c1)c1ccc(-c2ccccc2F)cc1,163 to 164
9,CCCCNc1ncc(C(=O)c2ccc(N)c([N+](=O)[O-])c2)s1,198 to 203
10,CCOC1CC2(C)C(CCC3C4CCC(=O)C4(C)CC(=O)C32)CC1O (configuration not stated),164 to 167
11,COc1cc(OC)cc(-c2ncoc2-c2ccc(OC(F)F)c(N)c2)c1,105
12,O=C(O)[C@H]1C[C@@H](O)CN1C(=O)Nc1ccc(Cl)cc1,132 to 134
13,Cc1ccc2c(c1)[nH]c1cc(C)ccc12,280 to 281
14,COC12C=CC(CC1)CC2C(=O)O (configuration not stated),77 to 81
15,FC(F)(F)c1c(Cl)c(Cl)c(C=S)c(Cl)c1Cl,98.5 to 100
16,O=c1oc(-c2cccc(Cl)c2)cc(O)c1SCCc1ccccc1,125 to 127
17,CCCCCCCCCCCCOc1ccc(O)c(C(=O)NNC(=O)c2ccccc2O)c1,244
18,COc1ccc2c(c1O)NC(OC)C1CCCN1C2=O (configuration not stated),154 to 156
19,O=Cc1cc(N2C(=O)C3=C(CCCC3)C2=O)ccc1Cl,140 to 141
20,COc1ccc(C(=O)C=Cc2ccccc2F)c(OC)c1OC,75 to 75.8
21,CCc1cccc(C)c1CNc1cc(CO)cn2nc(C)nc12,180
22,CCOC(=O)[C@@H](O)[C@@H](NC(=O)c1ccccc1)c1ccccc1,160 to 161
23,COc1cccc(-c2nc(-c3ccccc3COC(=O)c3ccccc3)n[nH]2)c1,128 to 130
24,CCOc1cccc(CNC(=O)c2nc3scc(COCc4ccc(C(=O)O)cc4)c3c(=O)[nH]2)c1,240
25,[N-]=[N+]=NS(=O)(=O)c1ccccc1[N+](=O)[O-],73 to 74
26,COc1cc(C(=O)NC2OCC(c3ccccc3)N3CCCCC23)cc(OC)c1OC (configuration not stated),126 to 128

row,Compound,melting point [°C]
1,Cc1ccc(Cl)cc1NC(=S)n1c(C)c(C)c2ccccc21,115
2,CCOC(=O)c1csc2cc(Oc3cc(Cl)nc(N)n3)ccc12,178 to 179
3,N#Cc1cc2nc(O)c(O)nc2cc1C#N,> 300
4,CCCOC(=O)CCc1cc(S(C)(=O)=O)cc(-c2nc(=O)c3ccc(Cl)cc3s2)n1,235 to 236
5,Cc1ccc(C2c3c(C)c(NC(=O)OC(C)(C)C)c(C)c(C)c3OC2(C)C)cc1 (configuration not stated),124 to 125
6,COC(=O)CC[C@@H](NC(=O)[C@H](COCc1ccccc1)NC(=O)OC(C)(C)C)C(N)=O,103 to 104
7,O=C(O)Cc1cccc2c(C3CCCC3)nccc12,172
8,CCCOc1ccc(CCCCCC(=O)O)cc1,42 to 43
9,Cc1cc(C)c2c(n1)Nc1ccccc1NC2=O,297 to 299
10,CCOCc1nc2c(N)nc3cc(O)ccc3c2n1CC(C)(C)NC(C)=O,140
11,Cc1cc(N2CCN(C(=O)NCCCCC3CCSS3)CC2)ccc1N=C(N)c1cccs1 (configuration not stated),169 to 171
12,CC(=O)NC[C@H]1CN(c2ccc(-n3cnnc3S)c(F)c2)C(=O)O1,269 to 271
13,CC(C#N)c1cccc(C(=O)c2cc3sccc3s2)c1 (configuration not stated),75
14,CC1(C)Oc2ccc(CC3SC(=O)NC3=O)cc2CC1c1ccccc1 (configuration not stated),53 to 68
15,O=C(c1ccccc1)c1ncc(=O)n(CC(F)(F)F)n1,174 to 175
16,CCOCCCOc1ccc(-c2ccc3c(c2)C=C(C(=O)OC)CCN3S(C)(=O)=O)cc1,127 to 129
17,Fc1ccccc1-c1cc2ccccc2[nH]1,97 to 98
18,CN(C)CCOc1ccc2c(c1)C(c1ccccc1)CC(=O)N2 (configuration not stated),133 to 135
19,O=P1(c2ccccc2)OCc2ccccc21 (configuration not stated),99 to 101
20,Fc1ccc2[nH]c(CC3CCN(CC4CCc5ccccc5O4)CC3)cc2c1 (configuration not stated),187 to 190
21,CCN1CCN(Cc2ccc(-c3cc4c(NCc5cccc(Cl)c5)ncnc4[nH]3)cc2)CC1,241 to 243
22,CCC(C)c1ccc(-n2c(-c3cc(C)c(OCCO)c(C)c3)nc3ccc(S(C)(=O)=O)cc3c2=O)cc1 (configuration not stated),259 to 260
23,CC1=CC(=O)c2nc3n(c2C1=O)CCC3,162 to 164
24,CCCc1c(OCC2CO2)ccc(C(C)=O)c1O (configuration not stated),53 to 55
25,CCNS(=O)(=O)Oc1cc(C(C)(C)C)c(SC2=C(O)CC(CCc3ccc(N)cc3)(CCc3ccc(N)cc3)OC2=O)cc1C,194
26,Cc1cc(-n2ccnc2)c2cccc(OCc3c(Cl)ccc(S(=O)(=O)N4CSC[C@H]4C(=O)O)c3Cl)c2n1,130

row,Compound,melting point [°C]
1,O=C1NC(=O)C(=Cc2ccc(OC3CCN(c4ccccn4)CC3)cc2)S1,218 to 220
2,O=C(c1ccccc1)c1cccc(OCCn2ccnc(N3CCNCC3)c2=O)c1,69 to 70
3,COc1ccc(COCc2cccc(C(=O)O)c2)cc1OC1CC2CCC1C2 (configuration not stated),77 to 79
4,CC(=O)Nc1ccc(C2=NNC(=O)C2)cc1,254 to 258
5,NC(c1ncn(N)n1)C1CCN(CC2COc3ccccc3O2)CC1 (configuration not stated),157 to 158
6,CCN(CC)C(=O)c1nc(-c2cccc3ccccc23)no1,102
7,CCc1ccc(C2C(=O)Oc3ccccc32)cc1 (configuration not stated),127 to 132
8,N#Cc1cc(N)c(F)c(-c2ccc(Cl)cc2)n1,185 to 188
9,O=C(O)CCCCCCCCCCn1nc(-c2ccccc2)c(-c2ccccc2)c1-c1ccccc1,81.5 to 84
10,Cc1ccc(S(=O)(=O)Oc2ccc3c4c(nn3CCNCCO)-c3cnccc3C(=O)c24)cc1,131 to 133
11,COc1cc2c(c3c1OC(C)(C)C3)C(c1ccc(NS(C)(=O)=O)cc1)=NC(C)(C)C2,235 to 237
12,Nc1ccccc1CNC1CCC(=O)NC1=O (configuration not stated),48 to 54
13,CNC(=O)c1ccc2c(c1)CCOC2CCN1CCN(c2ccc(OC)cc2)CC1 (configuration not stated),174 to 176
14,CN(C)Cc1c[nH]c2c(C(=O)c3ccccc3)cccc12,111 to 114
15,CN(Cc1cc(C(C)(C)C)c(O)c(C(C)(C)C)c1)n1ccnc1,139
16,CC(C)(C)OC(=O)Nc1ccc(C#Cc2ccc(F)cc2F)cc1N,113 to 116
17,CCNCc1ccc2nc(C)[nH]c(=O)c2c1,> 260
18,CN1CCN(c2ccc(-c3cnc4c(c3)C(O)CCN4)cn2)CC1 (configuration not stated),124 to 128
19,CCOC(=O)NCC(=O)c1ccc(O)cc1,137 to 140
20,CCC(=O)NCCC1CCc2cc(Br)c3c(c21)CC(C)(C)O3 (configuration not stated),98 to 101
21,COc1cc(Nc2nccc(-c3sc(NCCc4ccccc4)nc3C)n2)cc(OC)c1OC,184 to 186
22,COc1cc2ncc(C#N)c(Nc3ccc(F)c(Cl)c3)c2cc1NC(=O)C=CCN1CCC(O)C1 (configuration not stated),215 to 220
23,COc1cc(C=C(CC(=O)N2CCOCC2)C(=O)O)cc(OC)c1OC,135 to 138
24,CN1CCC(CO)(OCc2ccccc2F)CC1,104 to 108
25,Clc1cc2c(oc3c(Cl)c(Br)c(Cl)c(Br)c32)c(Br)c1Br,288 to 290
26,COc1ccc(CCN2CCC(Nc3nc4cncnc4n3Cc3ccccn3)CC2)cc1,144

row,Compound,melting point [°C]
1,CC(C)C(NC(=O)OCc1ccncc1)C(=O)NC(Cc1ccccc1)C(O)C(O)C(Cc1ccccc1)NC(=O)C(NC(=O)OCc1ccncc1)C(C)C (configuration not stated),190 to 193
2,O=C(CCCc1cccnc1)N1CCC(CC(c2ccccc2)c2ccccc2)CC1,98 to 100
3,COc1ccc(-n2cc(C(F)(F)F)nc2-c2ccc(OC)nc2)cc1,90 to 92
4,CC1(C)CCC(C)(C)c2cc(C3(c4ccc(C(=O)O)cc4)OCCO3)c(OCc3ccccc3)cc21,222 to 228
5,CCOC(=O)c1cnc2c(SCN3CCSCC3)cccn2c1=O,128 to 130
6,COC1(C)OC(=O)c2c(O)cccc21 (configuration not stated),101 to 104
7,COC(=O)c1ccccc1-c1ncccc1N,188 to 189
8,CCc1nc(C)[nH]c1I,156 to 159
9,CC(C)C(=O)Nc1nc(Cl)c([N+](=O)[O-])c(Cl)n1,166 to 169
10,O=C(Nc1ccc(C(=O)N2CCCCc3ccccc32)c(Cl)c1)OCCOc1ccccc1,144 to 146
11,CCCCc1nc2ccccn2c(=O)c1-c1ccc(OS(=O)(=O)C(F)(F)F)cc1,106 to 108
12,CN(C)C(=O)n1nc(-c2ccncc2)nc1-c1ccncc1,140 to 142
13,COc1ccc2c(c1)C(c1ccccc1)NC(=O)N2CC(F)(F)F (configuration not stated),168 to 169
14,CCC1(CC(=O)OC)OCCc2c1[nH]c1c(CCO)c(F)ccc21 (configuration not stated),101 to 103
15,NC(=O)NCc1cccc2c1C(=O)N(C1CCC(=O)NC1=O)C2=O (configuration not stated),292 to 294
16,CC(=O)N(CC(C)C)C1NC(=O)N(c2ccc(C(=O)O)cc2)C(=O)N1,191 to 193
17,CCOC(=O)C1=CN(c2ccc(Cl)c(Cl)c2Cl)N(N)C1,158 to 159
18,CC(C)N(C)C(=O)N1N=C2c3cc(F)ccc3OC[C@@H]2[C@@H]1c1ccccc1 (racemic),102 to 105
19,COC(=O)Nc1ccccc1,45 to 46
20,C#CCOc1cc(F)cc(F)c1-n1c(=O)cc(C(F)(F)F)n(C)c1=O,159 to 162
21,O=C(O)C1CSC(c2cccnc2)N1 (configuration not stated),135 to 140
22,C[C@@H](S[C@H]1CO[C@H](/C=C/C=C/c2ccc(C#N)cc2)OC1)[C@](O)(Cn1cncn1)c1ccc(F)cc1F,147 to 149
23,CCN(CC)C(=O)CP(=S)(c1ccccc1)c1ccccc1,108 to 110
24,CCOC(=O)c1c[nH]c(C2CCN(CCC(CN(C)C(=O)c3ccccc3)c3ccc(Cl)c(Cl)c3)CC2)n1 (configuration not stated),96 to 102
